The structures appear in SMILES notation.

The text below walks through data of paper PMC11678425, “(-)-Syringaresinol Exerts an Antidepressant-like Activity in Mice by Noncompetitive Inhibition of the Serotonin Transporter” (Pharmaceuticals, 2024).

Assay [1] has as its target T1, hSERT F556A (Homo sapiens, UniProt P31645, F556A).
T1 construct: forward and reverse primers were used to amplify a full-length hSERT; expressed in transfected cells; host or cells: HeLa cells, transient, pcDNA3.1
Nature of the assay: APP^+ uptake, hSERT F556A. The note with it: S2 site mutant, read-out: SYR IC50 for Transport. The format is cell-based.

The target in assay [2] is T2, hSERT T583A (Homo sapiens, UniProt P31645, T583A).
T2 construct: forward and reverse primers were used to amplify a full-length hSERT; expressed in transfected cells; host or cells: HeLa
Nature of the assay: ASP^+ binding, hSERT T583A. The note with it: S2 site mutant, read-out: SYR IC50 for Binding.

Assay [3] has as its target T3, hSERT P561G (Homo sapiens, UniProt P31645, P561G).
T3 construct: forward and reverse primers were used to amplify a full-length hSERT; expressed in transfected cells; host or cells: HeLa
Nature of the assay: APP^+ uptake, hSERT P561G. It is filed as cell-based. Particulars: S2 site mutant, read-out: SYR IC50 for Transport.

Assay [4] deals with T4, hSERT I172F (Homo sapiens, UniProt P31645, I172F).
T4 construct: forward and reverse primers were used to amplify a full-length hSERT; expressed in transfected cells; host or cells: HeLa
Nature of the assay: APP^+ uptake, hSERT I172F. It is filed as cell-based. Particulars: S1 site mutant, read-out: SYR IC50 for Transport. The procedure:
(§1) HeLa cells were cultured in Dulbecco’s Modified Eagle’s Medium supplemented with 10% fetal bovine serum, 100 units/mL penicillin, and 100 μg/mL streptomycin at 37 °C in a humidified 5% CO2 incubator. Cells grown at ~70% confluence in a 6 cm culture dish were transfected with hSERT cDNA in pcDNA3.1 by lipofectamine 2000. Transfected cells were incubated for 12 h at 37 °C with 5% CO2 and then transferred into 96-well plates. After being grown for an additional 12–16 h, the cells were then assayed for APP^+ uptake or ASP^+ binding.
Measurement of transport or ligand binding activity of SERT was performed by using its fluorescent substrate (APP^+) or ligand (ASP^+), respectively. The cells transiently expressing WT or mutants of hSERT were applied for various treatments. Briefly, the cells were washed twice with 100 μL KRH buffer containing 20 mM HEPES (Neofroxx, Einhausen, Germany), pH 7.4, 120 mM NaCl, 1.3 mM KCl, 2.2 mM CaCl2, 1.2 mM MgSO4, and 0.1% (w/v) glucose. APP^+ uptake was measured by adding 100 μL KRH buffer containing 2 μM APP^+ and incubating for 5 min at 22 °C. Excess APP^+ was then removed by 3× rapid washing with 100 μL KRH buffer each time. The extent of APP^+ accumulated in the cells was determined by fluorescence spectrometry with an Infinite 200 Pro microplate reader (Tecan, Männedorf, Switzerland). […]

Assay [5] concerns the target T3, hSERT P561G. Nature of the assay: ASP^+ binding, hSERT P561G. Particulars: S2 site mutant, read-out: SYR IC50 for Binding.
Assay [6] has as its system CUMS mice. Nature of the assay: Forced swim test (FST) in CUMS mice. The format is in vivo, mouse. The procedure: C57BL/6 adult (6–8 weeks, body weight, 18–22 g) male mice were maintained and handled in a standard condition at the Experimental Animal Center of Southern Medical University (Guangzhou, China). Animal use was approved by the Animal Use and Care Committee of Southern Medical University (approved code: SMUL2021177, approved date: 12 December 2021). The CUMS procedure was carried out according to a protocol described previously. Except for those in the control group, mice were randomly exposed to two mild unpredictable stressors per day for 3 weeks. The stressors included water deprivation, restraint, tilted cage, wet/no bedding, rotation, peppermint, noise, and inverted light off/on. Mice in the control group were group housed without any stressors throughout the procedure. […] NSFT was performed after 16 h food deprivation, as described previously. The mouse was placed in an open field (24 × 40 × 14 cm), where a new chow was put in the center, and the latency time to bite food was counted over 10 min. Home cage feeding within a 20 min period was measured after the test. FST was carried out according to a protocol described previously. The mouse was placed into a beaker (Bomex, Beijing, China) with a height of 18 cm filled with water (22 ± 1 °C) for 6 min. The immobile time was measured during minutes 2–6. TST was performed according to a previous description. The mouse was suspended from a hook that hung from a suspension bar by placing a piece of adhesive tape on its tail about 1 cm away from the tip. The immobile time during minutes 2–6 was measured.

Assay [7] concerns hSERT Q111N, G498T, P561G, Q562N. Nature of the assay: ASP^+ binding, four S2 mutants compared with WT. Further details: species or system human. The note with it: P561G, and Q562N. The procedure:
as §1
ASP^+ binding to SERT expressed on the cell surface was measured with digitonin-permeabilized cells as described previously. The cells expressing WT or mutants of hSERT were incubated with 10 μM ASP^+ in the presence of 25 μg/mL digitonin at 22 °C for 5 min. After removing excess ASP^+ by 3× rapid washing, ASP^+ fluorescence retained in the cell membrane was determined by fluorescence spectrometry.
hSERT mutants were generated using the Mut Express II Fast Mutagenesis kit (Vazyme, Nanjing, China). Briefly, forward and reverse primers were used to amplify a full-length hSERT. The PCR products were then digested with restriction enzymes, excised from agarose gels, and ligated into pcDNA3.1. All mutations were confirmed by full-length DNA sequencing.

Assay [8] has as its target T5, hSERT L563A (Homo sapiens, UniProt P31645, L563A).
T5 construct: forward and reverse primers were used to amplify a full-length hSERT; expressed in transfected cells; host or cells: HeLa
Nature of the assay: APP^+ uptake, hSERT L563A. The format is cell-based. Particulars: S2 site mutant, read-out: SYR IC50 for Transport.

T3 sequence (P31645 whole entry P561G): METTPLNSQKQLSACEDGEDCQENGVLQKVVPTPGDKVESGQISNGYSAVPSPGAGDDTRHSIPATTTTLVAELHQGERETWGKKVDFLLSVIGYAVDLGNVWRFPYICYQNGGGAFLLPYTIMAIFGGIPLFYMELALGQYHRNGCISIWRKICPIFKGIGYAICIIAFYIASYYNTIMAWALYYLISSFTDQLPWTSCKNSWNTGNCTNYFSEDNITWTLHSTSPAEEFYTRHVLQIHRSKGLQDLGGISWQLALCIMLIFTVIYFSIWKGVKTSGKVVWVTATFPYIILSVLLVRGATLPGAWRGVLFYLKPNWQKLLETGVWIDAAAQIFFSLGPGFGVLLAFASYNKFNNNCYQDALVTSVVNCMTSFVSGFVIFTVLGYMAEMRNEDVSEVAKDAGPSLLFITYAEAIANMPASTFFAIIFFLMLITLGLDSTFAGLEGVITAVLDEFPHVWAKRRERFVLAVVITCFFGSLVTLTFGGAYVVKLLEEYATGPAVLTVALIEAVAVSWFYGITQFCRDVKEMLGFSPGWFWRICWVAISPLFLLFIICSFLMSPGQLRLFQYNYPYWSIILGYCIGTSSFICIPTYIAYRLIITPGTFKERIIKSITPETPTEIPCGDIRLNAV
T2 sequence (P31645 whole entry T583A): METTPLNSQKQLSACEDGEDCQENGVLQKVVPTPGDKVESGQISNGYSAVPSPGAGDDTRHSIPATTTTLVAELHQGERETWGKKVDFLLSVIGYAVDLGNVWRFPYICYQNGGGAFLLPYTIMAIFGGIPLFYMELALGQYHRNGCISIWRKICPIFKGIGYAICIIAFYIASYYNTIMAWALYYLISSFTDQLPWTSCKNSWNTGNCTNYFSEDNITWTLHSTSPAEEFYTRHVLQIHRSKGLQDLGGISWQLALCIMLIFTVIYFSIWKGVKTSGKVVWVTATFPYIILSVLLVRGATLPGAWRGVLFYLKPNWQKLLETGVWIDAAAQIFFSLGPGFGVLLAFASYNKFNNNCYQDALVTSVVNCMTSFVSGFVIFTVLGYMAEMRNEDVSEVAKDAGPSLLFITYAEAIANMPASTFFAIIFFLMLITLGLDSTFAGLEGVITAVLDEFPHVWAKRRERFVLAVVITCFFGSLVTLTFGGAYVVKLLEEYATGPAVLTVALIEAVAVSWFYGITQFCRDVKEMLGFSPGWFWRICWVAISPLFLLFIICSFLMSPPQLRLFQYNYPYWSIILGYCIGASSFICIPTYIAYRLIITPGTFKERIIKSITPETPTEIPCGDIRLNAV
T1 sequence (P31645 whole entry F556A): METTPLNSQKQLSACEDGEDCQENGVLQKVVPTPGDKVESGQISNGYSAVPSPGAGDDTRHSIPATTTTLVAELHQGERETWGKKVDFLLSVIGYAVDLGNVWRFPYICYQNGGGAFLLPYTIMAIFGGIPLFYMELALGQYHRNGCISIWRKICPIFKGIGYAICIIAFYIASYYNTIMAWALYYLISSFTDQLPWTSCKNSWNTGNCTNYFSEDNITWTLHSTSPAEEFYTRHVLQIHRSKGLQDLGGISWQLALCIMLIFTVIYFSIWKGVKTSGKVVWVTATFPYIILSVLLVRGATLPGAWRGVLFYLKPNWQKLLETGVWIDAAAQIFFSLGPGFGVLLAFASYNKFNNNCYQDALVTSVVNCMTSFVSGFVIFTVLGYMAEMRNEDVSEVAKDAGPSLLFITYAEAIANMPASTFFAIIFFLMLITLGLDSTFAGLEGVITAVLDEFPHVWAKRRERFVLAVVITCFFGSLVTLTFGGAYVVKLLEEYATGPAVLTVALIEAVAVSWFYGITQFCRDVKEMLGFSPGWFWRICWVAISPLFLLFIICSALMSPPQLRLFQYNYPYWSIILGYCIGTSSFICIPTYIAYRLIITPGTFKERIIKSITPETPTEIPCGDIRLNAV
T4 sequence (P31645 whole entry I172F): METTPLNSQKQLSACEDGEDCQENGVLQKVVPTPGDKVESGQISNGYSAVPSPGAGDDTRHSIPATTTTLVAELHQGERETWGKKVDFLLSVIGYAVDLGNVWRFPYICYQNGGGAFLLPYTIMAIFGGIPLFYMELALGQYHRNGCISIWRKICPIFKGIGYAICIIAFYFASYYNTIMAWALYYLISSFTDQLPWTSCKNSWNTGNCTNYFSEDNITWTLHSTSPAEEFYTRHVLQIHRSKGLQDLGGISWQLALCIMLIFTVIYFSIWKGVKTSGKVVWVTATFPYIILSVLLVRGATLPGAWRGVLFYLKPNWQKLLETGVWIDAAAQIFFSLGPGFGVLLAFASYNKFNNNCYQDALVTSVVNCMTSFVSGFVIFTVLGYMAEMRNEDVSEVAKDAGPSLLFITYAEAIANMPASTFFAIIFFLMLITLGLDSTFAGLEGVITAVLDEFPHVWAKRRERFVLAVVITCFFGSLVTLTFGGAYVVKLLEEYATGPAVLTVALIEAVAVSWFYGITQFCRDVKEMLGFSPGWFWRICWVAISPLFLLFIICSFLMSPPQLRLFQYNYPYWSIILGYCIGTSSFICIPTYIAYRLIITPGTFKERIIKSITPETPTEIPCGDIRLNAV
T5 sequence (P31645 whole entry L563A): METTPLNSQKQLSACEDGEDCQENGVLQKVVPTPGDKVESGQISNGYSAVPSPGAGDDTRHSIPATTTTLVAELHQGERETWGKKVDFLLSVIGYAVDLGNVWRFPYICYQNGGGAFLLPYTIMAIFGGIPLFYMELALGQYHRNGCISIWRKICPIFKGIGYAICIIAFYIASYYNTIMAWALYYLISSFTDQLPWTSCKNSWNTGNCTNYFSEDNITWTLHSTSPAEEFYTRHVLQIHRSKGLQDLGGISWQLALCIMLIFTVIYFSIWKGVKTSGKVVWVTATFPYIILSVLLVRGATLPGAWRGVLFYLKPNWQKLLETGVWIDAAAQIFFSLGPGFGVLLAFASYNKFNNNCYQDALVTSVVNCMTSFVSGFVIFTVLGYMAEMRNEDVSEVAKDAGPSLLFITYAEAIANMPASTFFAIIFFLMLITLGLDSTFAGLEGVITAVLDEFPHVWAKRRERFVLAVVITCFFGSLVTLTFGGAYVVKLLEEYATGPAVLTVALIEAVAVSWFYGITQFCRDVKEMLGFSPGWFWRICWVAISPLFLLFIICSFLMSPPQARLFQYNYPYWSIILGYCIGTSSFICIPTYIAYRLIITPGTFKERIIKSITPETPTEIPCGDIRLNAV

In the case of `COc1cc([C@@H]2OC[C@@H]3[C@H]2CO[C@H]3c2cc(OC)c(O)c(OC)c2)cc(OC)c1O` [SYR, (-)-syringaresinol], the IC50 – broadly, the concentration at which inhibition is half-maximal – in assay [1] was found to be 7.39 ± 1.12 µM; in assay [2], 30.9 ± 0.93 µM; in assay [3], 46.3 ± 0.94 µM; in assay [4], 2.22 ± 0.04 µM; in assay [5], 131 ± 5.72 µM; in assay [8], 6.28 ± 0.57 µM. For the same molecule, the “reversal of behavioral abnormalities in FST” value in assay [6] (5 mg/kg, i.p., once per day day 7 to 21) is reported as “did not exhibit a significant response”. Besides, the “effect in FST” value in assay [6] (10 or 20 mg/kg (i.p.)) is listed as “remarkable antidepressant-like effects”. Further, in assay [7], the “SYR IC50 for ASP^+ binding relative to WT” value was at least 100 fold.
